This is an account of results in ChEMBL document CHEMBL1201862, “PubChem BioAssay data set” (2004).

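Where inhibition never reached the appropriate level, the endpoint shown equals the highest concentration tested. Otherwise, values were interpolated linearly from a five-concentration, 48-hour dose response in 96-well plates. Here, GI50 denotes the concentration required for 50% inhibition of growth.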 Activity calls are given as the source filed them. Rule as the data show it: active = GI50 up to about 1.1 µM and inactive = higher.

Test systems include COLO 205; HL-60; HOP-92; HT-29; MDA-MB-231; MDA-MB-435; NCI-H226; OVCAR-3; OVCAR-5; OVCAR-8; PC-3; SF-295; SN12C; SNB-19; SNB-75; TK-10; HCC 2998; SK-MEL-5.
Holding throughout (test): inhibition of tumour cell growth, NCI panel, 48 h

In the case of `O=C1/C(=C/c2cccc(Br)c2)Cc2ccccc21`, the GI50 is 32.1 µM (inactive) with COLO 205; 68.7 µM (inactive) in the assay with HL-60; 24.8 µM (inactive) in the assay with HOP-92; 45 µM (inactive) in the assay with HT-29; 44.9 µM (inactive) in the assay on MDA-MB-231; 80 µM (inactive) in the assay on MDA-MB-435. For the same compound, the GI50 was 21.6 µM (inactive) in the assay with NCI-H226; 41.6 µM (inactive) with OVCAR-3; > 100 µM (inactive) in the assay with OVCAR-5; 78.9 µM (inactive) with OVCAR-8; 29.9 µM (inactive) in the assay on PC-3; 39.7 µM (inactive) with SF-295. In addition, the GI50 in the assay with SN12C is > 100 µM (inactive); in the assay with SNB-19, 50.6 µM (inactive); in the assay with SNB-75, > 100 µM (inactive); in the assay with TK-10 it was 63.5 µM (inactive).

On to `CC(OC(=O)NCn1cc(-c2ccccc2)nn1)c1ccccc1` (stereo not drawn), for which the GI50 with COLO 205 is 34.6 µM (inactive); with HCC 2998 it was 39.2 µM (inactive); in the assay with HL-60, 27.8 µM (inactive); in the assay with HOP-92 it was 56.2 µM (inactive); with HT-29 it was 25.6 µM (inactive); in the assay on MDA-MB-231, 34.3 µM (inactive). For the same compound, the GI50 in the assay on MDA-MB-435 was 28.8 µM (inactive); in the assay on NCI-H226 it was 14.9 µM (inactive); in the assay on OVCAR-5, 49.3 µM (inactive); with OVCAR-8, 44.4 µM (inactive); with PC-3, 2.39 µM (inactive); in the assay on SF-295, 43.8 µM (inactive). Also, the GI50 in the assay with SK-MEL-5 was 17.3 µM (inactive); in the assay on SN12C it was 97.1 µM (inactive); in the assay on SNB-19, > 100 µM (inactive); with TK-10, 75.2 µM (inactive).

Take `C=C1CC[C@@H](CCC2CCC3(OC2)O[C@]2(O)CC[C@@]3(C)OC2(C)C)C(C)(C)[C@H]1C/C=C1\CCOC1=O` (stereo partly drawn): the GI50 in the assay with COLO 205 is 16.3 µM (inactive); with HCC 2998, 10.9 µM (inactive); in the assay on HL-60 it was 1.36 µM (inactive); in the assay on HOP-92 it was 10.5 µM (inactive); in the assay with HT-29, 4.93 µM (inactive); with MDA-MB-231 it was 23.6 µM (inactive). Moreover, the GI50 was 14.3 µM (inactive) in the assay on MDA-MB-435; 3.91 µM (inactive) in the assay on NCI-H226; 15 µM (inactive) in the assay on OVCAR-3; > 56.1 µM (inactive) in the assay on OVCAR-5; 15.3 µM (inactive) in the assay with OVCAR-8; 4.61 µM (inactive) in the assay on PC-3. For the same compound, the GI50 in the assay with SK-MEL-5 is 0.0244 µM (active); with SN12C, 16.6 µM (inactive); in the assay with SNB-19, 51.5 µM (inactive); in the assay on SNB-75, 19.6 µM (inactive); with TK-10, 39.5 µM (inactive).

On to `Cc1ccc(S(=O)(=O)NNC(=O)c2sc(-c3nc(C)c(C(=O)NNS(=O)(=O)c4ccc(C)cc4)s3)nc2C)cc1`, for which the GI50 in the assay on COLO 205 is > 100 µM (inactive); in the assay on HCC 2998, > 100 µM (inactive); with HL-60, 48.5 µM (inactive); with HOP-92 it was 31 µM (inactive); with HT-29, 57.3 µM (inactive); in the assay with NCI-H226 it was 50.7 µM (inactive). The GI50 in the assay on OVCAR-3 is > 100 µM (inactive); in the assay on OVCAR-5 it was > 100 µM (inactive); in the assay with OVCAR-8, > 100 µM (inactive); with SF-295, > 100 µM (inactive); in the assay with SK-MEL-5, 71.1 µM (inactive); in the assay on SN12C, > 100 µM (inactive). Further, the GI50 with SNB-19 is > 100 µM (inactive); in the assay with SNB-75, 58.3 µM (inactive); in the assay on TK-10, > 100 µM (inactive).

Turning to `COC(=O)C1CCC(N2C(=O)CCC2C(=O)OC)=N1` (stereo not drawn), the GI50 in the assay with COLO 205, in the assay on HCC 2998, in the assay with HL-60, with HOP-92, with HT-29 and with NCI-H226 was > 100 µM (inactive) each time. Besides, the GI50 with OVCAR-3, with OVCAR-5, with OVCAR-8, in the assay on SF-295, in the assay with SN12C and in the assay on SNB-19 was > 100 µM (inactive) in each case. Further, the GI50 in the assay with SNB-75 and in the assay with TK-10 was > 100 µM (inactive) throughout.
